Results as given in patent publication US20230372458A1, “ANTIVIRAL AGENT FOR COMBINED THERAPY OF COVID-19 (SARS-COV-2)” (priority 2020, published 2023).
Where two headings read alike, the source gives them in different places.

Tested on: COVID-19 (SARS-CoV-2)
Conditions: lung damage by computer tomography

NC(=O)c1nc(F)cnc1O [FPV, 6-fluoro-3-hydroxy-2-pyrazinecarboxamide]
CT on Day 14: Improvement, percent of patients: (72.7%) | CT on Day 14: No change, percent of patients: (9.1%) | CT on Day 14: Worsening, percent of patients: (18.2%) | CT on Day 14: Improvement, number of patients (count of patients): 8 | CT on Day 14: No change, number of patients (count of patients): 1 | CT on Day 14: Worsening, number of patients (count of patients): 2 | CT on Day 14: Improvement, percent of patients (listed as FVP): 72.7% | CT on Day 14: No change, percent of patients (listed as FVP): 9.1% | CT on Day 14: Worsening, percent of patients (listed as FVP): 18.2%
